{"source": "paper PMC11850127", "about": "(The Journal of Biological Chemistry, 2025)", "system": "[V13′T]α10 nAChR", "format": "cell-based, human (expressed in Xenopus laevis oocytes)", "note": "Entries after “also recorded” stand apart in the source; their conditions may differ. Starred links: 1 amine or outer side, 2 acyl side, 3 side chain; linkers in the order of their positions; H or OH if unused. Positions of bridges follow the written chain, without caps; N, C: chain ends. Non-standard residues stand in square brackets, D forms with d. Residues, ends and D or L forms follow the SMILES beside them. Chains are numbered I, II in the order given. Actinocin(9to1) = Cc1c2oc3c(C)ccc(C(=O)[*:1])c3nc-2c(C(=O)[*:2])c(N)c1=O; NMeV = CN[C@H](C(=O)O)C(C)C; Sar = CNCC(=O)O"}
{"smiles": "Cc1c2oc3c(C)ccc(C(=O)N[C@@H]4C(=O)N[C@H](C(C)C)C(=O)N5CCC[C@H]5C(=O)N(C)CC(=O)N(C)[C@@H](C(C)C)C(=O)O[C@@H]4C)c3nc-2c(C(=O)N[C@@H]2C(=O)N[C@H](C(C)C)C(=O)N3CCC[C@H]3C(=O)N(C)CC(=O)N(C)[C@@H](C(C)C)C(=O)O[C@@H]2C)c(N)c1=O", "note": "[actinomycin D] (I: T[dV]P[Sar][NMeV] / II: T[dV]P[Sar][NMeV]; ester I:1-I:C, II:1-II:C; linker I:N-II:N via Actinocin(9to1))", "values": [{"measurement": "effect of actinomycin D on ACh-induced currents", "result": "did not differ in the magnitude of their ACh-induced currents from untreated controls; also recorded: not significantly different"}, {"measurement": "mean ACh-induced response with actinomycin D", "result": "−233 ± 219", "unit": "nA"}]}
